From publication PMC3764403 (Chemistry & Biology, 2008)
Read-outs that look alike come from different tables or passages of the source. Numbered stars: 1 amine (or outer) side, 2 acyl side, 3 side chain; on linkers, the order of the positions; unused ones are H or OH. Square brackets hold non-standard residues; d marks the D form. Side chains are listed from the residue outwards. Peptide text beside a SMILES is read from it. NMeF = CN[C@@H](Cc1ccccc1)C(=O)O; CO = O=C([*:1])[*:2]

Legend:
[1] = molecular target: chitinase B from Serratia marcescens; set-up: method as in Houston et al., 2002b; settings: ref Houston et al., 2002b; read-out: IC50 against chitinase B from Serratia marcescens; cited from earlier work
[2] = molecular target: T1, chitinase B1 from Aspergillus fumigatus (AfChiB1) (Aspergillus fumigatus, UniProt Q873X9); settings: Table 1, argifin value reported previously, ref Rao et al., 2005b, Dixon et al.; cited from earlier work
T1 construct: made in house; host or cells: Escherichia coli

[3] = molecular target: T1, chitinase B1 from Aspergillus fumigatus (AfChiB1); assay: biochemical; settings: for AfChiB1 BEI (Binding Efficiency Index): BEI = −log(Ki)/M, M in kilodaltons, Ki derived from IC50 by Cheng and Prusoff equation
Protocol: Chitinase activities for AfChiB1 ([Rao et al., 2005b]), hCHT ([Boot et al., 1998]), and total chitinase activity in lung homogenate samples from a mouse model of chronic asthma were determined as previously described ([Schüttelkopf et al., 2006]). […] AfChiB1 (2 nM) was incubated with 20 μM 4-methylumbelliferyl-β-D-N-N'-diacetylchitobiose (4MU-GlcNAc2; Sigma) and 0.25 mg/ml bovine serum albumin in 100 mM citric acid, 200 mM Na2HPO4 (pH 5.5). hCHT (0.3 nM) was incubated with 22 μM 4-methylumbelliferyl-β-D-N-N'-triacetylchitobiose (4MU-GlcNAc3; Sigma) and 0.25 mg/ml bovine serum albumin in 100 mM citric acid, 200 mM Na2HPO4 (pH 5.2). Lung homogenate (39 μg/ml) (obtained as described previously [[Schüttelkopf et al., 2006]]) was incubated with 20 μM 4MU-GlcNAc2 in 100 mM citric acid, 200 mM Na2HPO4 (pH 5.5). All reactions were run for 10 min at 37°C, and liberated 4-methylumbelliferone (4MU) was quantified after addition of 25 μl 3 M glycine-NaOH (pH 10.6) using an Flx 800 microtiterplate fluorescence reader (Bio-Tek instruments) with 40 nm slits and excitation and emission wavelengths of 360 nm and 460 nm, respectively.

Molecule	IC50 [1]	IC50 [2]	AfChiB1 BEI (Binding Efficiency Index) [3]	IC50 ([3]; read-out: IC50 against AfChiB1)
argifin	33 µM	0.027 µM	11.7	–
CNC(=O)NC(=N)NCCC[C@H](NC(C)=O)C(=O)N(C)[C@@H](Cc1ccccc1)C(=O)N[C@@H](CC(=O)O)C(=O)O [Tripeptide] (Ac-Arg([CO-NHMe])-[NMeF]-Asp-OH)	–	–	10.2	–
CNC(=N)NC(=O)NC [Dimethylguanylurea, dimethylguanylurea]	–	–	27.7	–
CNC(=O)NC(=N)NCCCC(NC(C)=O)C(=O)NC (stereo not shown) [Monopeptide]	–	–	15.3	81 µM
